According to patent US12698293B2, “Crystal form of macrocyclic compound, and preparation method therefor and use thereof” (HITGEN INC., priority 2021, dated 2026):
Each block holds one molecule with its values, some of them ahead of it.

Columns and labels:
[1] = Pharmacokinetic test in beagle dogs, plasma concentration after oral gavage; format: in vivo; settings: dog, male beagle dogs, oral single gavage, 8 mg/kg
Method: After grouped (3 Beagle dogs per group), male beagle dogs were orally administered with the crystal form of the macrocyclic compound provided by the present invention via single gavage at a dose of 8 mg/kg. The plasma was collected at 0.25 h, 0.5 h, 1.0 h, 2.0 h, 4.0 h, 6.0 h, 8.0 h, and 24 h after the administration. A standard curve with appropriate range was established based on the concentration of the tested sample to calculate the concentration of the tested sample in plasma. The quantitative analysis was carried out and the pharmacokinetic parameters were calculated for the tested sample. The results are shown in Table 5, wherein Cmax represents the peak concentration, AUC0-last represents the area below the drug-time curve, Tmax represents peak time of the drug and T1/2 represents the half-life of the drug.

[2] = Stability test on influence factors (high temperature, high humidity, light), purity by HPLC; format: physicochemical; settings: for change of purity / impurity content during the experimental period (in words): high temperature, high humidity and light, 30 days
Method: The crystal form and the amorphous form of the macrocyclic compound provided by the present invention were subjected to the stability test on influence factors according to China Pharmacopoeia (2020 edition) Part Four General Principles 9103. Specifically, the crystal form of a macrocyclic compound prepared in example 1 and the amorphous form of the macrocyclic compound prepared in comparative example 1 were placed in an open space under the respective conditions of high temperature (60±2° C.), high humidity (90%±5% RH, 25±2° C.) and light (4500±500 Lx) for 30 days to test stability. The observation period was 30 days. The tested samples were taken on days 5, 10 and 30, and analyzed for purity by high performance liquid chromatography.

[3] = Accelerated stability test, crystal form checked by XRPD; format: physicochemical; settings: 40 ± 2° C., relative humidity 75 ± 5%, seal
Method: The crystal form of the macrocyclic compound provided by the present invention was subjected to accelerated stability test to examine stability according to China Pharmacopoeia (2020 edition) Part Four General Principles 9103. Specifically, the crystal form was placed in a sealed space at temperature of 40±2° C. and a relative humidity of 75±5% for 6 months. The sample to be tested was taken at months 1, 2, 3 and 6, and detected using X-ray Powder Diffractometer.

[4] = Hygroscopicity test by dynamic vapor sorption (DVS); format: physicochemical; settings: for hygroscopicity characteristic: DVS, 0-80% relative humidity, China Pharmacopoeia 2020 classes; for weight change with increasing humidity (DVS): between 0-80% relative humidity
Method: The crystal form and amorphous form of the macrocyclic compound provided by the present invention were evaluated for hygroscopicity, and the test was performed using a dynamic vapor sorption to obtain data. The description of the hygroscopicity characteristic and the definition of the weight gain due to hygroscopicity (as shown in Table 2) are referred to China Pharmacopoeia (2020 edition) Part Four General Principles 9103.
The adsorption-desorption isotherm of the crystal form prepared in example 1 is shown in FIG. 5, wherein the abscissa is relative humidity and the ordinate is weight (%). […] The adsorption-desorption isotherm of the crystal form prepared in comparative example 1 is shown in FIG. 6, wherein the abscissa is relative humidity and the ordinate is weight (%).

[5] = listed as comparative example 1

AUC(0-t) [1]: 5340 ± 1070 ng·h/mL
Tmax [1]: 1.3 ± 0.58 h
half-life [1]: 19 ± 3.9 h
Cmax ([1]; read-out: C0/Cmax): 729 ± 208 ng/mL
Sample purity (%) ([2]; High humidity (90%±5% RH, 25±2° C.), open, day 5, listed as example 1): 98.8%
Sample purity (%) ([2]; High humidity (90%±5% RH, 25±2° C.), open, day 10, listed as example 1): 98.8%
Sample purity (%) ([2]; High humidity (90%±5% RH, 25±2° C.), open, day 30, listed as example 1): 98.8%
Sample purity (%) ([2]; High temperature (60±2° C.), open, day 5, listed as example 1): 99.0%
Sample purity (%) ([2]; High temperature (60±2° C.), open, day 10, listed as example 1): 98.9%
Sample purity (%) ([2]; High temperature (60±2° C.), open, day 30, listed as example 1): 98.9%
Sample purity (%) ([2]; Light (4500±500 Lx), open, day 5, listed as example 1): 98.9%
Sample purity (%) ([2]; Light (4500±500 Lx), open, day 10, listed as example 1): 98.8%
Sample purity (%) ([2]; Light (4500±500 Lx), open, day 30, listed as example 1): 98.6%
Sample purity (%) ([2]; day 0, listed as example 1): 98.8%
crystal form by XRPD ([3]; month 1): Same as initial crystal form
crystal form by XRPD ([3]; month 2): Same as initial crystal form
crystal form by XRPD ([3]; month 3): Same as initial crystal form
crystal form by XRPD ([3]; month 6): Same as initial crystal form
hygroscopicity characteristic ([4]; listed as example 1): not hygroscopic
weight change with increasing humidity (DVS) ([4]; listed as example 1): approximately 0.1%
Compound: C[C@@H]1CCOc2ccc(F)cc2[C@H]2CCCN2c2ccc3ncc(C#N)c(c3n2)N1 [Example 1, (6R,16R)-9-fluoro-16-methyl-13-oxa-2,17,21,25-tetraazapentacyclo [16.6.2.0^2,6.0^7,12.0^22,26]hexacosane-1(25),7,9,11,18(26), 19,21,23-octane-19-carbonitrile]
change of purity / impurity content during the experimental period (in words) ([2]; listed as example 1): increased slightly under the light condition only

Sample purity (%) ([2]; High humidity (90%±5% RH, 25±2° C.), open, day 5, listed as comparative example 1): 97.9%
Sample purity (%) ([2]; High humidity (90%±5% RH, 25±2° C.), open, day 10, listed as comparative example 1): 98.0%
Sample purity (%) ([2]; High humidity (90%±5% RH, 25±2° C.), open, day 30, listed as comparative example 1): 97.7%
Sample purity (%) ([2]; High temperature (60±2° C.), open, day 5, listed as comparative example 1): 97.6%
Sample purity (%) ([2]; High temperature (60±2° C.), open, day 10, listed as comparative example 1): 97.1%
Sample purity (%) ([2]; High temperature (60±2° C.), open, day 30, listed as comparative example 1): 96.9%
Sample purity (%) ([2]; Light (4500±500 Lx), open, day 5, listed as comparative example 1): 97.4%
Sample purity (%) ([2]; Light (4500±500 Lx), open, day 10, listed as comparative example 1): 96.8%
Sample purity (%) ([2]; Light (4500±500 Lx), open, day 30, listed as comparative example 1): 96.4%
Sample purity (%) ([2]; day 0, listed as comparative example 1): 98.1%
change of purity / impurity content during the experimental period (in words) [2, 5]: decrease in purity
hygroscopicity characteristic [4, 5]: very hygroscopic (not less than 15%)
weight change with increasing humidity (DVS) [4, 5]: about 21.6%
Compound: C[C@@H]1CCOc2ccc(F)cc2[C@H]2CCCN2c2ccc3ncc(C#N)c(c3n2)N1 [Comparative Example 1, (6R,16R)-9-fluoro-16-methyl-13-oxa-2,17,21,25-tetraazapentacyclo [16.6.2.0^2,6.0^7,12.0^22,26]hexacosane-1(25),7,9,11,18(26), 19,21,23-octane-19-carbonitrile]
